Test results published in patent US10036047B2, “Methods for hydroxylating phenylpropanoids” (University of Georgia Research Foundation, Inc., priority 2013, dated 2018).
Where “and” joins values, the source holds several entries; their conditions need not be identical. Equal values may be shown once. Read-outs that look alike come from different tables or passages of the source.

Tests used:
[1] = molecular target: T1, HpaBC (Escherichia coli, UniProt Q57160); assay type: biochemical; settings: for kcat: kcat=Vmax/[E]
T1 sequence (Q57160 2-520): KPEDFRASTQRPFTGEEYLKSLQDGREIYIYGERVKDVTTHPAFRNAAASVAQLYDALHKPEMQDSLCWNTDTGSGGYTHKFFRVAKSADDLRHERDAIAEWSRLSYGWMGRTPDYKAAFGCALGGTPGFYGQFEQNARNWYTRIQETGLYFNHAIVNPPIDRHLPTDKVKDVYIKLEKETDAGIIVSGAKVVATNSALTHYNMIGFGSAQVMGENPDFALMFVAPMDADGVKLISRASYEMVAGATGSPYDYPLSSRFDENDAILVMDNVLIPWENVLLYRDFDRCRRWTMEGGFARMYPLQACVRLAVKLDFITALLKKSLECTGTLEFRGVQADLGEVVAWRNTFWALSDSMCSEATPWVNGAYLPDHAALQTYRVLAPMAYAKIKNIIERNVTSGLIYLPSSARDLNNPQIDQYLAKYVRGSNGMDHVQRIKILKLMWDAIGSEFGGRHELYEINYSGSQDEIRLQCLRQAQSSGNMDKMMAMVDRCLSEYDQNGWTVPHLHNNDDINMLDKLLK
Procedure: The E. coli strain was transformed with pZE-His7HpaB and pZE-His7HpaC separately. The fresh transformants were pre-inoculated in LB medium containing 100 μg/ml ampicillin and grown at 37° C. aerobically overnight. In the following day, the pre-inoculums were transferred into 50 ml of fresh LB medium at a ratio of 1:100. The cultures were cultivated at 37° C. till the OD600 values reached about 0.6 and then induced by 0.5 mM IPTG. […] The BCA kit (Pierce Chemicals) was used to estimate protein concentrations. […] The HpaBC enzyme assays were carried out according to the protocol described by Louie et al. with minor modifications (Louie et al., 2003. Biochemistry (Mosc) 42(24):7509-17). The 1 ml reaction system contains KPi Buffer (20 mM, pH=7.0), FAD (10 μM), NADH (1 mM), HpaB (0.5 μM), HpaC (0.5 μM), substrates (from 10 to 1000 μM). […] The reaction rates were calculated according to the product formation and substrate consumption, which were measured by HPLC. Apparent kinetic parameters were determined by non-linear regression of the Michaelis-Menten equation using OriginPro8™.
We further investigated and compared the kinetic parameters of HpaBC towards its native substrate 4HPA and the 3 non-native substrates. To do these, a multi-histidine tag was fused to the N-terminus of HpaB and HpaC, which were subsequently over-expressed and purified from E. coli. The enzyme complex was reconsituted in vitro for enzyme assays (FIG. 5).

[2] = molecular target: T2, HpaBC (Escherichia coli, UniProt Q57160); settings: from p-coumaric acid; cited from earlier work
T2 construct: expressed in transfected cells; host or cells: E. coli strain harboring pZE-HpaBC
T2 sequence (Q57160 whole entry): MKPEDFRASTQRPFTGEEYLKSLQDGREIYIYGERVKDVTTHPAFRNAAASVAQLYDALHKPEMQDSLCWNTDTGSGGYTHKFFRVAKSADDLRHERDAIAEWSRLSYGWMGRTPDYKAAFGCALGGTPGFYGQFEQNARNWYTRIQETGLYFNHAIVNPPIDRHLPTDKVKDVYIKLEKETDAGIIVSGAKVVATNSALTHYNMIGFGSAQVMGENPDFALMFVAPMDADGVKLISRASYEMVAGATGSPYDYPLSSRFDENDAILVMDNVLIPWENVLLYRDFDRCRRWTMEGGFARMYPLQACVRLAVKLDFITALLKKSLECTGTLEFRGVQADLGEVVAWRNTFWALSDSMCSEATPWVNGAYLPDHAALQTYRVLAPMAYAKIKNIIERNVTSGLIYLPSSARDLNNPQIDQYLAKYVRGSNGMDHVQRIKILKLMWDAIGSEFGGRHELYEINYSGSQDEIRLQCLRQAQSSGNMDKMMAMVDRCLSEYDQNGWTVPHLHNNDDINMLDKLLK

[3] = molecular target: T2, HpaBC; assay: HpaBC substrates screening: feeding of E. coli strain over-expressing HpaBC; assay type: cell-based; settings: 200 mg/L substrate, additional 10 hour incubation
Procedure: The E. coli strain harboring pZE-HpaBC was pre-inoculated into LB liquid medium containing ampicillin (100 μg/ml) and grown overnight at 37° C. Then 200 μl of the inoculum was transferred into 20 ml of fresh M9Y medium. The E. coli cells were grown at 37° C. till the OD600 values reached around 0.6 and then transferred to 30° C. and induced by 0.5 mM IPTG.
As the initial step towards examining the activity, we constructed a high-copy number plasmid co-expressing hpaB and hpaC (pZE-HpaBC) and introduced it into E. coli. The resulting strain was cultivated and induced with IPTG for enzyme expression for 3 hours, after which 200 mg/L of substrate was added into the cultures. After additional 10 hour incubation, we analyzed the cell-free broth by HPLC. […] We further used naringenin to explore the substrate tolerance limit of HpaBC. […] The three new peaks were collected from HPLC for mass spectrum analysis.

[4] = molecular target: T2, HpaBC; assay: Whole-cell biocatalysis with E. coli cells over-expressing HpaBC; assay type: cell-based; settings: for whole cell bioconversion of substrate into hydroxylated product: 500 mg/L substrate, about 3.3 g/L DCW, in 3 h
Procedure: The E. coli strain harboring pZE-HpaBC was first cultivated in 50 ml LB liquid medium at 37° C. till OD600 values reached 0.6. Then the cells were transferred to 30° C. and induced with 0.5 mM IPTG for additional 6 hours. After that, cells were harvested, re-suspended in 15 ml M9Y medium (0D600=9.6), and incubated in a rotary shaker at 300 rpm. […] When the substrate concentrations fell below 0.5 g/L, additional 1 g/L substrates were supplemented. […] Samples were taken every few hours and analyzed by HPLC.
Whole-cell biocatalysis is an efficient and economical way to scale up enzyme-catalyzed reactions.

[5] = substrate: O=c1ccc2ccc(O)cc2o1; assay: purified protein, by the assay type; settings: other: apparent, HpaB 0.5 μM, HpaC 0.5 μM, pH 7.0, 30° C.
[6] = substrate: Oc1ccc(/C=C/c2cc(O)cc(O)c2)cc1; assay: purified protein, by the assay type; settings: other: apparent, HpaB 0.5 μM, HpaC 0.5 μM, pH 7.0, 30° C.

O=C(O)Cc1ccc(O)cc1 [4-HPA, 4-hydroxyphenylacetate, reference compound]
Km ([1]; apparent, HpaB 0.5 μM, HpaC 0.5 μM, pH 7.0, 30° C.): 18.4 µM | kcat ([1]; apparent, pH 7.0, 30° C.): 1.08 ± 0.015 s⁻¹ | kcat ([1]; apparent, pH 7.0, 30° C., listed as 4HPA): 1.08 s⁻¹

O=C(O)/C=C/c1ccc(O)c(O)c1 [caffeic acid]
caffeic acid production titer [2]: 3.82 g/L and 21.2 mM

O=C1C[C@@H](c2ccc(O)cc2)Oc2cc(O)cc(O)c21 [naringenin]
substrate consumption in culture (HPLC) [3]: majority of naringenin was left unconverted | activity of HpaBC towards substrate ([1]; kinetic parameters not determined): low activity

Oc1ccc(/C=C/c2cc(O)cc(O)c2)cc1 [Resveratrol, 3,5,4′-trihydroxy-trans-stilbene]
substrate consumption in culture (HPLC) [3]: completely consumed | whole cell bioconversion of substrate into hydroxylated product [4]: completely converted | kcat ([1]; apparent, pH 7.0, 30° C.): 0.0933 s⁻¹

O=c1ccc2ccc(O)cc2o1 [Umbelliferone, umbelliferone]
substrate consumption in culture (HPLC) [3]: completely consumed | whole cell bioconversion of substrate into hydroxylated product [4]: completely converted | whole-cell conversion efficiency relative to resveratrol ([4]; umbelliferone vs resveratrol): about 3 fold | kcat ([1]; apparent, pH 7.0, 30° C.): 0.0667 s⁻¹

O=C1C[C@@H](c2ccc(O)c(O)c2)Oc2cc(O)cc(O)c21 (single isomer, unassigned) [eriodictyol]
product generated ([4]; 150 mg/L naringenin fed, 10 h): 16.7 mg/L and 58 μM

O=c1ccc2cc(O)c(O)cc2o1 (single isomer, unassigned) [esculetin]
maximum product titer ([4]; end of 18 h, fed substrate, 1.5 mM ascorbic acid): 2.7 g/L and 15.5 mM | highest hydroxylation rate (product formation) ([4]; initial 2 h, 1.5 g/L initial substrate): 298.1 μM/h/OD

B1: HpaBC (Escherichia coli) (protein)
chain: KPEDFRASTQRPFTGEEYLKSLQDGREIYIYGERVKDVTTHPAFRNAAASVAQLYDALHKPEMQDSLCWNTDTGSGGYTHKFFRVAKSADDLRHERDAIAEWSRLSYGWMGRTPDYKAAFGCALGGTPGFYGQFEQNARNWYTRIQETGLYFNHAIVNPPIDRHLPTDKVKDVYIKLEKETDAGIIVSGAKVVATNSALTHYNMIGFGSAQVMGENPDFALMFVAPMDADGVKLISRASYEMVAGATGSPYDYPLSSRFDENDAILVMDNVLIPWENVLLYRDFDRCRRWTMEGGFARMYPLQACVRLAVKLDFITALLKKSLECTGTLEFRGVQADLGEVVAWRNTFWALSDSMCSEATPWVNGAYLPDHAALQTYRVLAPMAYAKIKNIIERNVTSGLIYLPSSARDLNNPQIDQYLAKYVRGSNGMDHVQRIKILKLMWDAIGSEFGGRHELYEINYSGSQDEIRLQCLRQAQSSGNMDKMMAMVDRCLSEYDQNGWTVPHLHNNDDINMLDKLLK
Km [5]: 262.2 µM | kcat [5]: 0.0667 s⁻¹ | kcat/Km [5]: 254 M⁻¹ s⁻¹ | Km [6]: 145.1 µM | kcat [6]: 0.0933 s⁻¹ | kcat/Km [6]: 643 M⁻¹ s⁻¹
